In patent US10975071B2, “Inhibitors of KRAS G12C mutant proteins” (Araxes Pharma LLC, priority 2015, dated 2021):

Target: T1, KRAS G12C 1-169, his-tagged protein, GDP-loaded (Homo sapiens, UniProt P01116, G12C)
T1 construct: KRAS G12C 1-169, his-tagged protein, GDP-loaded
Assay: Biochemical assay: covalent binding to KRAS G12C measured by mass spectrometry
Experimental: Test compounds are prepared as 10 mM stock solutions in DMSO (Fisher cat# BP-231-100). KRAS G12C 1-169, his-tagged protein, GDP-loaded is diluted to […] in buffer (20 mM Hepes, 150 mM NaCl, 1 mM MgCl2). Compounds are tested for activity as follows:
Compounds are diluted to 50× final test concentration in DMSO in 96-well storage plates. Compound stock solutions are vortexed before use and observed carefully for any sign of precipitation. Dilutions are as follow: • For 100 μM final compound concentration, compounds are diluted to 5000 μM (5 μl 10 mM compound stock +5 μl DMSO and mixed well by pipetting. • For 30 μM final compound concentration, compounds are diluted to 1500 μM (3 μl 10 mM compound stock +17 μl DMSO) and mixed well by pipetting. • For 10 μM final compound concentration, compounds are diluted to 500 μM (2 μl 10 mM compound stock +38 μl DMSO) and mixed well by pipetting. 49 μl of the stock protein solution is added to each well of a 96-well PCR plate (Fisher cat#1423027). […] of the diluted 50× compounds are added to appropriate wells in the PCR plate using 12-channel pipettor. Reactions are mixed carefully and thoroughly by pipetting up/down with a 200 μl multi-channel pipettor. The plate is sealed well with aluminum plate seal, and stored in drawer at room temperature for 24 hrs. 5 μl of 2% formic acid (Fisher cat# Al 117) in DI H2O is then added to each well followed by mixing with a pipette. The plate is then resealed with aluminum seal and stored on dry ice until analyzed as described below.
The above described assays are analyzed by mass spectrometry according to the following procedure:
The MS instrument is set to positive polarity, 2 GHz resolution, and low mass (1700) mode and allowed to equilibrate for 30 minutes. The instrument is then calibrated, switched to acquisition mode and the appropriate method loaded.
After another 30 minute equilibration time, a blank batch (i.e., buffer) is run to ensure equipment is operating properly. The samples are thawed at 37° C. for 10 minutes, briefly centrifuged, and transfer to the bench top. Wells Al and H12 are spiked with 1 uL 500 uM internal standard peptide, and the plates centrifuged at 2000×g for 5 minutes. The method is then run and masses of each individual well recorded.
The masses (for which integration data is desired) for each well are pasted into the platemap and exported from the analysis. Masses for the internal standards are exported as well. The data at 50 ppm is extracted for the +19 charge state, and identity of well Al is assigned using the internal standard spike and integrated. Peak data is exported as a TOF list and the above steps are repeated individually, for the +20, 21, 22, 23, 24, and 25 charge states.

T1 sequence (P01116 1-169 isoform P01116-2 G12C): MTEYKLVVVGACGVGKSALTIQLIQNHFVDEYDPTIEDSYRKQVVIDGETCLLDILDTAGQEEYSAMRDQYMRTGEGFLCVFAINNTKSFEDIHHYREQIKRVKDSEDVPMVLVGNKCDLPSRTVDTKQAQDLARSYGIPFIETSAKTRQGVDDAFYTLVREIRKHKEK

Compound	Binding %
C=CC(=O)N1CCN(c2c(NC(C)=O)nc3cc(-c4c(F)cccc4OC)c(Cl)cn23)CC1 [Compound 21, N-(3-(4-acryloylpiperazin-1-yl)-6-chloro-7-(2-fluoro-6-methoxyphenyl)imidazo[1,2-a]pyridin-2-yl)acetamide]	+ (+ indicates binding activity up to 5)
C=CC(=O)N1CCN(c2cnc3c(F)c(-c4c(O)cccc4F)c(Cl)cn23)CC1 [Compound 20, 1-(4-(6-chloro-8-fluoro-7-(2-fluoro-6-hydroxyphenyl)imidazo[1,2-a]pyridin-3-yl)piperazin-1-yl)prop-2-en-1-one]	+++ (+++ indicates binding activity 50% or greater)
C=CC(=O)N1CCN(C2=COC3C=C(c4c(O)cccc4F)C(Cl)=CC23)CC1 (stereo not drawn) [Compound 26, 1-(4-(5-chloro-6-(2-fluoro-6-hydroxyphenyl)-3a,7a-dihydrobenzofuran-3-yl)piperazin-1-yl)prop-2-en-1-one]	+++ (+++ indicates binding activity 50% or greater)
C=CC(=O)N1CCN(c2c(NC(C)=O)nc3cc(-c4c(O)cccc4F)c(C)cn23)CC1 [Compound 24, N-(3-(40 acryloylpiperazin-1-yl)-7-(2-fluoro-6-hydroxyphenyl)-6-methylimidazo[1,2-a]pyridin-2-yl)acetamide]	+ (+ indicates binding activity up to 5)
C=CC(=O)N1CCN(C2=NCC(=O)Nc3c2cc(Cl)c(-c2c(O)cccc2F)c3F)CC1 [Compound 25, 5-(4-acryloylpiperazin-1-yl)-7-chloro-9-fluoro-8-(2-fluoro-6-hydroxyphenyl)-1,3-dihydro-2H-benzo[e][1,4] diazepin-2-one]	+ (+ indicates binding activity up to 5)
C=CC(=O)N1CCN(c2cnc3cc(-c4c(C)ccc5[nH]ncc45)c(Cl)cn23)CC1 [Compound 1, 1-(4-(6-chloro-7-(5-methyl-1H-indazol-4-yl)imidazo[1,2-a]pyridin-3-yl)piperazin-1-yl)prop-2-en-1-one]	++ (++ indicates binding activity greater than 5% and up to 50%)
